According to US20010046994A1, “Hexahydrotriazine compounds and insecticides” (priority 1989, published 2001):
Where two headings read alike, the source gives them in different places.

Tests used:
[1] = tested on: green rice leafhopper which had acquired resistance to chemicals; assay: Rice seedling dip test, mortality of resistant green rice leafhopper larvae (Test Example 1); assay type: in vivo; settings: Nephotettix cincticeps, read-out: Mortality (%), 500 ppm
Description: (§1) Five rice seedlings having a height of about 7 cm were dipped, for 10 seconds, into aqueous dilutions of wettable powder each containing a predetermined concentration of each sample compound, prepared in accordance with the procedure as described in Formulation Example 1. After air drying, the roots of the five rice seedlings were wrapped with sanitary cotton dampened with water, and placed in a glass cylinder having a diameter of 3 cm and a height of 20 cm. Ten second instar larvae of a green rice leafhopper which had acquired resistance to chemicals were released into each glass cylinder. The cylinder was allowed to stand in a room maintained at 26° C. The mortality of the larvae was examined 48 hours after treatment.

[2] = tested on: brown rice planthopper which had acquired resistance to chemicals; assay: Rice seedling dip test, mortality of resistant brown rice planthopper larvae (Test Example 2); assay type: in vivo; settings: read-out: Mortality (%), 500 ppm
Description: as §1, with “brown” for “green”, “planthopper” for “leafhopper”

[3] = 500 ppm wettable powder dilution, rice seedlings dipped 10 seconds, second instar larvae, 48 hours after treatment, 26° C.

Cc1cc(OP(C)(C)=S)ccc1[N+](=O)[O-] [Comparative Compound, reference compound]
mortality at 500 ppm ([1]; 48 h): 70% | mortality at 500 ppm ([2]; 48 h): 65%

CCN1CNC(=N[N+](=O)[O-])N(Cc2ccc(Cl)nc2)C1 [Compound No. 2, 1-(2-chloro-5-pyridylmethyl)-5-ethyl-2-nitroiminohexahydro-1,3,5-triazine]
mortality at 500 ppm [1, 3]: 100% | mortality at 500 ppm [2, 3]: 100%

CN1CNC(=N[N+](=O)[O-])N(Cc2ccc(Cl)nc2)C1 [compound 1, 1-(2-chloro-5-pyridylmethyl)-5-methyl-2-nitroiminohexahydro-1,3,5-triazine]
mortality at 500 ppm [1, 3]: 100% | mortality at 500 ppm [2, 3]: 100%

CN1CN(C)C(=N[N+](=O)[O-])N(Cc2ccc(Cl)nc2)C1 [compound 5, 1-(2-chloro-5-pyridylmethyl)-3,5-dimethyl-2-nitroiminohexahydro-1,3,5-triazine]
mortality at 500 ppm [1, 3]: 100% | mortality at 500 ppm [2, 3]: 100%

CN1CN(C)C(=N[N+](=O)[O-])N(Cc2cnc(Cl)s2)C1 [compound 6, 1-(2-chloro-5-thiazolylmethyl)-3,5-dimethyl-2-nitroiminohexahydro-1,3,5-triazine]
mortality at 500 ppm [1, 3]: 100% | mortality at 500 ppm [2, 3]: 100%
